# In US12036225B2, “Use of ibezapolstat to promote microbiome health” (Acurx Pharmaceuticals, Inc., priority 2021, dated 2024):
# Experiments:
# [1] = tested on: C. difficile infection; settings: literature (Gonzales-Luna); cited from earlier work
# [2] = tested on: C. difficile infection; test: Phase 2a open-label trial in CDI patients: clinical cure and sustained clinical cure; assay type: in vivo, human; settings: 10 CDI patients
# Method: Phase 2a of this trial was an open-label cohort of 10 subjects from study centers in the United States. In this cohort, 10 patients with diarrhea caused by mild/moderate C. difficile diagnosed via toxin EIA+ were treated with ibezapolstat 450 mg orally, twice daily for 10 days. All patients were followed for recurrence for 28±2 days. Stool was collected during course of therapy and at follow up. Patient fecal samples were evaluated for C. difficile culture and microbiome changes.
# The primary efficacy outcome measure was clinical cure at EOT defined as resolution of diarrhea in the 24-hour period preceding EOT and maintained for at least 48 hours post EOT. SCC was defined as clinical cure with no recurrence of CDI within 28 (±2) days after EOT.
# An intent-to-treat analysis of patients receiving at least one dose of ibezapolstat was conducted. Descriptive statistics were calculated for efficacy, safety/tolerability, and PK data generated using SAS version 9.4 software (SAS Institute, Inc Cary, NC, USA). Microbiome summary plots and data visualization was prepared using R software version 4.1.1 (R Core Team 2021, Vienna, Austria). (R Core Team (2013). R: A language and environment for statistical computing. R Foundation for Statistical Computing, Vienna, Austria.) Alpha diversity for each sample was assessed with the VeganR package version 2.4-2 using the Shannon Diversity Index and Inverse Simpson Index. Differences in alpha diversity (Shannon Diversity and Inverse Simpson Indexes) and bile acids at baseline compared to during or after therapy were compared using linear regression models. Proportional changes of bacterial taxa over the 10-day dosing interval were calculated using linear regression models for taxa with at least a one percent proportional change during the study time period. A p value <0.05 was considered significant.
# [3] = tested on: C. difficile; test: Phase 2a trial: stool culture for C. difficile on CCFA; assay type: in vivo, Clostridioides difficile; settings: CDI patients
# Method: Stool samples were cultured for C. difficile growth on a selective cycloserine-cefoxitin fructose agar (CCFA) at 37° C. under anaerobic conditions for 48 hours. (Gonzales-Luna). Isolates were determined to be C. difficile based on growth and morphology and confirmed by PCR for C. difficile toxin and tpi genes. C. difficile was strain typed using a PCR-based ribotyping method as previously described. (Gonzales-Luna A J, Carlson T J, Dotson K M, et al. PCR ribotypes of Clostridioides difficile across Texas from 2011 to 2018 including emergence of ribotype 255. Emerg Microbes Infect 2020; 9(1): 341-7.) Minimum inhibitory concentrations (MICs) were determined for ibezapolstat by broth microdilution in 0.1% sodium taurocholate Brain Heart Infusion (BHI) media. (Begum K, Basseres E, Miranda J, et al. In Vitro Activity of Omadacycline, a New Tetracycline Analog, and Comparators against Clostridioides difficile. Antimicrob Agents Chemother 2020; 64(8).)
# [4] = Phase 2a trial: safety assessments (adverse events); assay type: in vivo, human
# Method: Safety evaluations included AE assessment, physical examination, vital signs, clinical laboratory tests (chemistry, hematology, and urinalysis), and electrocardiography. Safety endpoints for all subjects were recorded including nature, frequency, and severity of AEs. AEs were assessed at each visit beginning from the time of enrollment and classified according to the Medical Dictionary for Regulatory Activities (MedDRA version 15.0). AE severity (mild, moderate, or severe) and causality (unrelated, possibly related, or probably related to the study medication) were assessed by the investigator at each site.
# [5] = Phase 2a trial: plasma and fecal concentrations (PK); assay type: in vivo, human; settings: CDI patients
# Method: Plasma levels were drawn at 2 and 4 hours after the first daily ibezapolstat administration on days 1, 5, and 10. Fecal samples were collected at baseline and daily during days 1-10 of ibezapolstat receipt. Plasma and fecal concentrations were assayed by AltaSciences (Laval, Quebec, Canada) and PK analyses were performed by Learn and Confirm Inc. (Montreal, Quebec, Canada).
# [6] = ibezapolstat 450 mg orally twice daily 10 days
# [7] = CDI patients receiving ibezapolstat
smiles,measurement,setting,value
CCc1c(Cl)c(O)c(Cl)c(O)c1C(=O)O[C@H]1[C@H](O)[C@H](OC)[C@H](OC/C2=C\C=C\C[C@H](O)/C(C)=C/[C@H](CC)[C@@H](O[C@@H]3OC(C)(C)[C@@H](OC(=O)C(C)C)[C@H](O)[C@@H]3O)/C(C)=C/C(C)=C/C[C@@H]([C@@H](C)O)OC2=O)O[C@@H]1C [fidaxomicin],CDI recurrence rates lower than other treatments,[1],approximately 50%
"CN[C@H](CC(C)C)C(=O)N[C@H]1C(=O)N[C@@H](CC(N)=O)C(=O)N[C@H]2C(=O)N[C@H]3C(=O)N[C@H](C(=O)N[C@H](C(=O)O)c4cc(O)cc(O)c4-c4cc3ccc4O)[C@H](O)c3ccc(c(Cl)c3)Oc3cc2cc(c3O[C@@H]2O[C@H](CO)[C@@H](O)[C@H](O)[C@H]2O[C@H]2C[C@](C)(N)[C@H](O)[C@H](C)O2)Oc2ccc(cc2Cl)[C@H]1O [Vancomycin, vancomycin]",patients having a recurring CDI after treatment is discontinued,[1],20-25%
"O=c1[nH]c(NCc2ccc(Cl)c(Cl)c2)nc2ncn(CCN3CCOCC3)c12 [Ibezapolstat, 2-((3,4-dichlorobenzyl)amino)-7-(2-morpholinoethyl)-1,7-dihydro-6H-purin-6-one]",no recurrences of infection,[2]; followed 28±2 days,100%
same,clinical cure at day 12,[2]; [6],100%
same,infection eliminated,[2]; [6],100%
same,sustained clinical cure at day 38,[2]; [6],100%
same,C. difficile growth from stool samples after baseline,"[3]; all sampling days other than baseline, 7-9 samples/day",did not grow C. difficile
same,Eradication of colonic C. difficile,[3]; ibezapolstat 450 mg twice daily,complete eradication of colonic C. difficile by day three
same,number of AEs reported,[4]; 10 CDI patients,Seven
same,serious AEs,[4]; 10 CDI patients,None
same,"adverse event profile, in words","[4]; 10 CDI patients, ibezapolstat 450 mg twice daily 10 days",acceptable adverse event profile
same,Adverse event Headache: Action taken with study medication,[4]; [7],No
same,Adverse event Headache: Frequency,[4]; [7],Intermittent
same,Adverse event Headache: Intensity,[4]; [7],Mild
same,Adverse event Headache: Outcome,[4]; [7],Resolved
same,Adverse event Headache: Relationship to study drug,[4]; [7],Unrelated
same,Adverse event Headache: Serious AE,[4]; [7],No
same,Adverse event Headache: Treatment required,[4]; [7],No
same,Adverse event Intertriginous Candidiasis: Action taken with study medication,[4]; [7],No
same,Adverse event Intertriginous Candidiasis: Frequency,[4]; [7],Continuous
same,Adverse event Intertriginous Candidiasis: Intensity,[4]; [7],Moderate
same,Adverse event Intertriginous Candidiasis: Outcome,[4]; [7],Resolved
same,Adverse event Intertriginous Candidiasis: Relationship to study drug,[4]; [7],Unrelated
same,Adverse event Intertriginous Candidiasis: Serious AE,[4]; [7],No
same,Adverse event Intertriginous Candidiasis: Treatment required,[4]; [7],Yes
same,Adverse event Migraine headache: Action taken with study medication,[4]; [7],No
same,Adverse event Migraine headache: Frequency,[4]; [7],Continuous
same,Adverse event Migraine headache: Intensity,[4]; [7],Severe
same,Adverse event Migraine headache: Outcome,[4]; [7],Resolved
same,Adverse event Migraine headache: Relationship to study drug,[4]; [7],Unrelated
same,Adverse event Migraine headache: Serious AE,[4]; [7],No
same,Adverse event Migraine headache: Treatment required,[4]; [7],Yes
same,Adverse event Nausea: Action taken with study medication,[4]; [7],No
same,Adverse event Nausea: Frequency,[4]; [7],Intermittent
same,Adverse event Nausea: Intensity,[4]; [7],Moderate
same,Adverse event Nausea: Outcome,[4]; [7],Resolved
same,Adverse event Nausea: Relationship to study drug,[4]; [7],Probably
same,Adverse event Nausea: Serious AE,[4]; [7],No
same,Adverse event Nausea: Treatment required,[4]; [7],No
same,Adverse event Vomiting: Action taken with study medication,[4]; [7],No
same,Adverse event Vomiting: Frequency,[4]; [7],Once
same,Adverse event Vomiting: Intensity,[4]; [7],Moderate
same,Adverse event Vomiting: Outcome,[4]; [7],Resolved
same,Adverse event Vomiting: Relationship to study drug,[4]; [7],Probably
same,Adverse event Vomiting: Serious AE,[4]; [7],No
same,Adverse event Vomiting: Treatment required,[4]; [7],Yes
same,patients with AEs,[4]; of the 10 patients,4
same,stool samples with detectable concentration on day 38,[5],Three of 4
same,"plasma concentrations, upper limit",[5]; 450 mg twice daily,≤ 1000 ng/mL
same,"stool concentration, days 8-10 of therapy",[5]; 450 mg twice daily,"> 1,000 μg/g stool"
same,concentration at 2 h,"[5]; human, plasma, oral, 450 mg twice daily, read-out: plasma levels 2-hour post-dose",234 to 299 ng/mL
same,concentration at 4 h,"[5]; human, plasma, oral, 450 mg twice daily, read-out: plasma levels 4-hour postdose",373 to 578 ng/mL
same,concentration at 2 days after EOT,"[5]; human, stool, oral, 450 mg, read-out: stool concentration two days after EOT",535000 ± 748000 ng/g
same,concentration at 38 day,"[5]; human, stool, oral, 450 mg, samples with detectable concentration",136000 ± 161000 ng/g
same,concentration at 3 day of therapy,"[5]; human, stool, oral, 450 mg twice daily",416000 ± 494000 ng/g
